Laboratory results as given in US20230312601A1, “THIAZOLO[5,4-B]PYRIDINE MALT-1 INHIBITORS” (AbbVie Inc., priority 2022, published 2023).

Experiments:
[1] = tested on: OCI-LY3 IL6; assay: MALT-1 Cell IL-6 AlphaLISA Assay; type: cell-based; conditions: Homo sapiens; OCI-LY3 cells, 48 hours incubation; read-out: OCI-LY3 IL6 48 hour Inhibition EC50
Summary of the method: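 MALT-1-dependent ABC-DLBCL OCI-LY3 cells were seeded at 50,000 cells/mL onto compound (30 μM to 1.5 nM) and incubated 48 hours at 37° C. Secreted human IL-6 in the medium was measured by AlphaLISA with acceptor beads, biotinylated anti-IL-6 antibody and streptavidin donor beads.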

[2] = tested on: CYP 3A4 mRNA; assay: CYP3A4 Induction Assay (qPCR, human hepatocytes); type: in vitro ADME; conditions: 10 μM compound, relative to rifampicin 10 μM
Summary of the method: (§1)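 Cryopreserved human hepatocytes (60,000 cells/well), overlaid with Geltrex, were dosed at 10 μM final, with omeprazole, rifampicin and probenecid as controls. RNA was isolated on day 3. CYP3A4 mRNA was measured by TaqMan RT-qPCR with GAPDH as the reference gene.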

[3] = tested on: CYP3A4 mRNA; assay: CYP3A4 Induction Assay (qPCR, human hepatocytes); type: in vitro ADME; conditions: cryopreserved human hepatocytes (plated), 10 μM compound, mRNA fold over vehicle (0.1% DMSO)
Summary of the method: as §1

[4] = tested on: male Sprague-Dawley rats; assay: Cardiovascular Assay in anesthetized rats; type: in vivo; conditions: rat; for HR (%) / MAP (%) / dP/dt@50 (%): change from vehicle; for Drug (μg/mL SEM): plasma at end of infusion
Description: The following cardiovascular assay was conducted using male Sprague-Dawley rats that were anesthetized with Inactin (thiobutabarbital), instrumented (catheterized both femoral artery and vein; catheterize left ventricular) and allowed to stabilize. Following a 30-minute baseline period, each compound was infused at low, medium, and high doses/30 minutes. Plasma samples were taken at the end of each dose infusion. If, at any point, the mean arterial pressure (MAP) of an animal decreased below 70 mmHg, the infusion was immediately stopped, a final blood sample was taken, and hemodynamic data for that animal was removed from the group average for all subsequent time points. A 15% change from vehicle for MAP or heart rate (HR), respectively, is considered biologically relevant. A 20% change from vehicle for dP/dt@50 is considered biologically relevant.

[5] = molecular target: human MALT-1 protein (Homo sapiens (Human), UniProt Q9UDY8); assay: MALT-1 Biochemical Assay (Quench-FRET enzyme assay); conditions: human MALT-1 6 nM, substrate 2 μM, 40 min preincubation
human MALT-1 protein, sequence (Q9UDY8 whole entry): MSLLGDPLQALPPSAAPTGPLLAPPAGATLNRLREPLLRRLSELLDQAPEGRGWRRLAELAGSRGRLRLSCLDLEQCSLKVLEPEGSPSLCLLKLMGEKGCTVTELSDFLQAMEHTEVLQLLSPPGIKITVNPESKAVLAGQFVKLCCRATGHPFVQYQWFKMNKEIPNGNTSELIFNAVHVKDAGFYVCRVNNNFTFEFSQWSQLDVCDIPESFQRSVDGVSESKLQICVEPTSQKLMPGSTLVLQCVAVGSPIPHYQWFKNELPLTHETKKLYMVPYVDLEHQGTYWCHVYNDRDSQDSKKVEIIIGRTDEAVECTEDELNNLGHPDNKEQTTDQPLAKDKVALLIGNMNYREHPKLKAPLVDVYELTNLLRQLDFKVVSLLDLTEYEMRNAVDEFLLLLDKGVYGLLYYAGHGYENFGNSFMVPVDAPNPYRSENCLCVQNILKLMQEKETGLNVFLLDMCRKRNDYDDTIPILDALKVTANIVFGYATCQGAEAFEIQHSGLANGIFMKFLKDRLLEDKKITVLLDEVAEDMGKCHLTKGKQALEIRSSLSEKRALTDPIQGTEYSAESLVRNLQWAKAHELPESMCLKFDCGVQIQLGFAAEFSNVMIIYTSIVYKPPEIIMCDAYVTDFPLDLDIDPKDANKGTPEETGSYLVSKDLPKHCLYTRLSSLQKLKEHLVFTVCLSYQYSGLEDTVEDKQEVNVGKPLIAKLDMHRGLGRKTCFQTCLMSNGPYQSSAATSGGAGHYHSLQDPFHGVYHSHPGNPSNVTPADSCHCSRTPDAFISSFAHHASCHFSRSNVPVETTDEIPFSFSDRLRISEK
Summary of the method: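 Human MALT-1 (6 nM) preincubated 40 min at room temperature with compound in pH 7.5 HEPES buffer containing 0.8 M sodium citrate and 2 mM DTT. Then 2 μM quenched TAMRA/QSY7 peptide substrate added for 60 min. Cleavage read by fluorescence (Ex 535/Em 590); EC50 is half-maximal inhibition of protease activity.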

| EC50 [1] | CYP3A4 % of positive control (%) [2] | fold induction at 1 day, 10 µM [3] | EC50 [5] | SMILES | HR (%) ([4]; dose 3 mg/kg) | MAP (%) ([4]; dose 3 mg/kg) | dP/dt@50 (%) ([4]; dose 3 mg/kg) | HR (%) ([4]; dose 10 mg/kg) | MAP (%) ([4]; dose 10 mg/kg) | dP/dt@50 (%) ([4]; dose 10 mg/kg) | HR (%) ([4]; dose 30 mg/kg) | MAP (%) ([4]; dose 30 mg/kg) | dP/dt@50 (%) ([4]; dose 30 mg/kg) | Drug (μg/mL SEM) ([4]; dose 3 mg/kg) | Drug (μg/mL SEM) ([4]; dose 10 mg/kg) | Drug (μg/mL SEM) ([4]; dose 30 mg/kg) |
| --- | --- | --- | --- | --- | --- | --- | --- | --- | --- | --- | --- | --- | --- | --- | --- | --- |
| 200 nM | (5.46) % | 1.45 | 91 nM | CO[C@@H](C)c1c(Nc2ccc([C@H](N(C)C(=O)C3CCS(=O)(=O)CC3)C(F)(F)F)cc2)cnc2sc(C)nc12 [Example 1, N-methyl-1,1-dioxo-N-{(1S)-2,2,2-trifluoro-1-[4-({7-[(1S)-1-methoxyethyl]-2-methyl[1,3]thiazolo[5,4-b]pyridin-6-yl}amino)phenyl]ethyl}-1λ^6-thiane-4-carboxamide] | −4% | −5% | 5% | −8% | −8% | 12% | −17% | −16% | 11% | 2.32 ± 0.12 µg/mL | 9.36 ± 0.41 µg/mL | 24.00 ± 1.63 µg/mL |
| 140 nM | (1.75) % | 1.12 | 110 nM | CO[C@H](c1c(Nc2ccc([C@H](N(C)C(=O)C3CCS(=O)(=O)CC3)C(F)(F)F)cc2)cnc2sc(C)nc12)C(F)F [Example 3, N-{(1S)-1-[4-({7-[(1R)-2,2-difluoro-l-methoxyethyl]-2-methyl[1,3]thiazolo[5,4-b]pyridin-6-yl}amino)phenyl]-2,2,2-trifluoroethyl} -N-methyl-1,1-dioxo-1λ^6-thiane-4-carboxamide] | −1% | 1% | 0% | −3% | 0% | 3% | −12% | −13% | −3% | 2.18 ± 0.10 µg/mL | 8.34 ± 0.55 µg/mL | 22.87 ± 2.67 µg/mL |
| 950 nM | (−0.162) % | 0.985 | 198 nM | CO[C@@H](C)c1c(Nc2ccc([C@H](N(C)C(=O)C3CCN(C(C)=O)CC3)C(F)(F)F)cc2)cnc2sc(C)nc12 [Example 19, 1-acetyl-N-methyl-N-{(1S)-2,2,2-trifluoro-1-[4-({7-[(1S)-1-methoxyethyl]-2-methyl[1,3]thiazolo [5,4-b]pyridin-6-yl}amino)phenyl]ethyl}piperidine-4-carboxamide] | −5% | 0% | −5% | −5% | −1% | −5% | −9% | −2% | −3% | 2.51 ± 0.29 µg/mL | 8.92 ± 0.73 µg/mL | 25.13 ± 0.98 µg/mL |
| 440 nM | (4.87) % | 1.37 | 82 nM | CO[C@H](c1c(Nc2ccc([C@@H](C(F)F)N(C)C(=O)C3CCN(C(=O)CO)CC3)cc2)cnc2sc(C)nc12)C(F)F [Example 31, N-{(1S)-1-[4-({7-[(1R)-2,2-difluoro-1-methoxyethyl]-2-methyl[1,3]thiazolo[5,4-b]pyridin-6-yl}amino)phenyl]-2,2-difluoroethyl}-1-(hydroxyacetyl)-N-methylpiperidine-4-carboxamide] | – | – | – | – | – | – | – | – | – | – | – | – |
| 250 nM | (2.56) % | 1.2 | 113 nM | CO[C@@H](c1c(Nc2ccc([C@H](N(C)C(=O)C3CCN(C(=O)CO)CC3)C(F)(F)F)cc2)cnc2sc(C)nc12)C(F)F [Example 32, N-{(1S)-1-[4({7-[(1S)-2,2-difluoro-1-methoxyethyl]-2-methyl[1,3]thiazolo [5,4-b]pyridin-6-yl}amino)phenyl]-2,2,2-trifluoroethyl}-1-(hydroxyacetyl)-N-methylpiperidine-4-carboxamide] | – | – | – | – | – | – | – | – | – | – | – | – |
| 180 nM | (20.2) % | 2.72 | 162 nM | CO[C@@H](c1c(Nc2ccc([C@H](N(C)C(=O)C3CCN(C(C)=O)CC3)C(F)(F)F)cc2)cnc2sc(C)nc12)C(F)F [Example 33, 1-acetyl-N-{(1S)-1-[4-({7-[(1S)-2,2-difluoro-1-methoxyethyl]-2-methyl[1,3]thiazolo [5,4-b]pyridin-6-yl}amino)phenyl]-2,2,2-trifluoroethyl}-N-methylpiperidine-4-carboxamide] | −5% | −5% | 1% | −7% | −5% | 1% | −8% | −9% | 7% | 2.52 ± 0.39 µg/mL | 11.20 ± 0.60 µg/mL | 34.10 ± 1.95 µg/mL |
| 190 nM | (13) % | 2.11 | 112 nM | CO[C@H](C)c1c(Nc2ccc([C@H](N(C)C(=O)C3CCN(C(=O)CO)CC3)C(F)(F)F)cc2)cnc2sc(C)nc12 [Example 34, 1-(hydroxyacetyl)-N-methyl-N-1{(1S)-2,2,2-trifluoro-1-[4-({7-[(1R)-1-methoxyethyl]-2-methyl[1,3]thiazolo[5,4-b]pyridin-6-yl}amino)phenyl]ethyl}piperidine-4-carboxamide] | – | – | – | – | – | – | – | – | – | – | – | – |
| 7300 nM | (17) % | 2.45 | 500 nM | CO[C@H](C)c1c(Nc2ccc([C@H](N(C)C(=O)C3CCN(C(C)=O)CC3)C(F)(F)F)cc2)cnc2sc(C)nc12 [Example 35, 1-acetyl-N-methyl-N-{(1S)-2,2,2-trifluoro-1-[4-({7-[(1R)-1-methoxyethyl]-2-methyl[1,3]thiazolo [5,4-b]pyridin-6-yl}amino)phenyl]ethyl}piperidine-4-carboxamide] | – | – | – | – | – | – | – | – | – | – | – | – |
| 270 nM | (14.4) % | 1.9 | 48 nM | CO[C@H](c1c(Nc2ccc([C@@H](C(F)F)N(C)C(=O)C3CCN(C(=O)CO)CC3)cc2)cnc2sc(C)nc12)C(F)(F)F [Example 36, N-{(1S)-2,2-difluoro-1-[4-({2-methyl-7-[(1R)-2,2,2-trifluoro-1-methoxyethyl][1,3]thiazolo [5,4-b]pyridin-6-yl}amino)phenyl]ethyl}-1-(hydroxyacetyl)-N-methylpiperidine-4-carboxamide] | – | – | – | – | – | – | – | – | – | – | – | – |
| 210 nM | (19) % | 2.19 | 60 nM | CO[C@H](c1c(Nc2ccc([C@@H](C(F)F)N(C)C(=O)C3CCN(C(C)=O)CC3)cc2)cnc2sc(C)nc12)C(F)(F)F [Example 37, 1-acetyl-N-{(1S)-2,2-difluoro-1-[4-({2-methyl-7-[(1R)-2,2,2-trifluoro-1-methoxyethyl][1,3]thiazolo[5,4-b]pyridin-6-yl}amino)phenyl]ethyl}-N-methylpiperidine-4-carboxamide] | – | – | – | – | – | – | – | – | – | – | – | – |
